A melting point compilation (Tetko et al.; mined from patent text by program, amines drawn as free bases though some values may be those of a salt)

Compound `COC(=O)c1cn(C2CC2)c2c(F)c(F)c(F)cc2c1=O` has a melting point of 214 to 216 °C.
`COc1cnn(-c2ccc(C)cc2)n1` gave a melting point of 65 to 67 °C.
Compound `NN=Cc1ccc(CC(=O)NC2CCC3(CC2)CN(CC(=O)O)C(=O)O3)cc1` (stereo not given) has a melting point of 193 to 196 °C.
In the case of `COc1ccc(-n2cnc(OC(C)C(=O)O)n2)cc1` (stereo not given), the melting point is reported as 155 to 157 °C.
`COC(=O)c1cc(Cl)c(Cl)c(-c2cc(C)no2)c1C` showed a melting point of 76 to 77 °C.
Work on `CCOc1cccc(NC(=O)Nc2ccc(N3CCN(C(=O)Nc4cc(OCCO)ccc4Cl)CC3)nc2)c1` yielded a melting point of 140 to 143 °C.
`Cn1c(-c2cc(C(C)(C)C)c(O)c(C(C)(C)C)c2)n[nH]c1=O` gave a melting point of 308 to 312 °C.
In the case of `CCOC(=O)/C=C/c1cc(-n2cnnn2)cc(C)c1N`, the melting point is reported as 210 to 211 °C.
Work on `CCCCCOc1c(OC)cc([N+](=O)[O-])c2nccc(C)c12` yielded a melting point of 54 to 55 °C.
With `O=C(O)CCc1ccccc1C(=O)NCCc1ccccc1` the melting point was 106 to 108 °C.
`CCCc1nc2c(N)nc3cc(OCCN4CCCC4=O)ccc3c2s1` gave a melting point of 163 to 166 °C.
Compound `O=C(O)C1(C(=O)O)CC(C2CCC2)C1` has a melting point of 150 to 151 °C.
Work on `COc1ccc(-c2c3ccccc3cc3sc4ccccc4c23)cc1I` yielded a melting point of 274 to 275 °C.
Compound `COC(C)(C)CNCc1cnc2c(C)c(NC(=O)c3ccc(OCC4CCOC4)cc3)ccc2c1` (stereo not given) has a melting point of 137 °C.
`O=C(O)c1ccccc1CF` showed a melting point of 178 to 181 °C.
With `COc1ccc(CSCC(NC(=O)c2ccccc2)C(=O)NC(C)(C)c2ccccc2)cc1` (stereo not given) the melting point was 189 °C.
Compound `CCCOc1cc2c(cc1OCCC)CCC(C(=O)N1CCN(C(=O)c3cc(OC)c(OC)c(OC)c3)CC1)=C2` has a melting point of 124 to 126 °C.
`CCCCS(=O)Cc1cc(C)c(CCl)cc1C` (stereo not given) showed a melting point of 112 °C.
`CCc1cccc(C)c1CNc1cc(C(=O)O)cc2c1nc(C)n2C` gave a melting point of 312 to 314 °C.
With `COc1ccnc(CCc2nc3cc(-c4ccc(S(=O)(=O)N5CCN(c6ccc(C)cc6)CC5)cc4)cnc3[nH]2)c1` the melting point was 150 to 154 °C.
`NC(=O)c1ccccc1NC(=O)c1ccc2c(c1)CCO2` showed a melting point of 230 to 235 °C.
`Cc1ccccc1-c1nn(C(C)C(=O)N(C)C)cc1Cl` (stereo not given) gave a melting point of 69 to 71.5 °C.
Work on `O=C(c1ccc([N+](=O)[O-])c(O)c1)N1CCOCC1` yielded a melting point of 106 °C.
Work on `N#Cc1cc(=O)c2ccc(OCCCCl)cc2o1` yielded a melting point of 124 to 125 °C.
With `CC1(C)Oc2ccc(C#N)cc2[C@@H](NC(=NC#N)N2CCCC2)[C@@H]1O` (relative stereo) the melting point was 263 to 264 °C.
Work on `CCc1cccc2ccc(C=O)c(OCOC)c12` yielded a melting point of 41.5 to 42.5 °C.
For `Cc1oc(-c2ccccc2)nc1COc1ccc(Cn2cc(CCCC(=O)O)c(-c3ccccc3)n2)cc1`, the melting point was 118 to 119 °C.
For `N#CCCc1cccc2c1N(Cc1cccc(/C=C/c3ccc4ccccc4n3)c1)CC2`, the melting point was 126 to 129 °C.
In the case of `c1ccc2c(c1)NCCCO2`, the melting point is reported as 50 to 51 °C.
Compound `CC(=NO)c1ccc2c(c1O)OC(CO)CO2` (stereo not given) has a melting point of 162 °C.
`CCCNC(=O)CCCc1ccc2c(c1)c(Cc1ccc(C(=O)OC)cc1OC)cn2CCC` showed a melting point of 100 °C.
With `O=C1N(c2ccc(Cl)cc2Cl)Cc2cnc(Nc3ccccc3)nc2N1c1cccc(CCO)c1` the melting point was 213 to 217 °C.
`CCCCc1ncc(/C=C(/C(=O)O)C(Cc2ccccc2)c2cccs2)n1Cc1ccccc1Cl` (stereo not given) showed a melting point of 200 to 202 °C.
Compound `COc1cc(N2[C@H](C)C[C@](C)(O)[C@@H]2C)ccc1C#N` has a melting point of 121 to 123 °C.
With `COc1ccc(CC(=O)Nc2cccc(/C=C/c3nc(C4CCC4)cs3)c2)c(C(=O)O)c1` the melting point was 190 to 191 °C.
`CS(=O)(=O)c1cc(F)cc(Cc2cc3cccc(-c4cccc(C(=O)NCC(N)=O)c4)c3s2)c1` gave a melting point of 160 to 161 °C.
Work on `CC1=C2CCC3C(CCC4(C)C3CCC4(C)O)C2(C)CCC1=O` (stereo not given) yielded a melting point of 141 to 144 °C.
In the case of `COCCN(C)c1cc2ncc(C#N)c(C)c2cc1OC`, the melting point is reported as 90 to 96 °C.
`COc1cccc2c1CC(C(=O)NCCOc1ccc(CC(=O)O)cc1)N2S(=O)(=O)c1ccc(-c2cccc(C(F)(F)F)c2)cc1` (stereo not given) gave a melting point of 96 °C.
Work on `OCc1cnoc1-c1ccc(Br)cc1` yielded a melting point of 104 to 105 °C.
In the case of `CC12CCCc3cc(C(=O)O)cc(c31)CCC2`, the melting point is reported as 213 to 215 °C.
Compound `COP(=O)(NC1C(=O)N2C(C(=O)OCc3ccc([N+](=O)[O-])cc3)=C(C=CN(C)C)CSC12)OC` (stereo not given) has a melting point of 236 to 237 °C.
Compound `CN1CCN(Cc2ccc3n2Cc2ccccc2SC3c2ccccc2)CC1` (stereo not given) has a melting point of 161 to 162 °C.
`Cc1csc2nccn12` showed a melting point of 165 to 168 °C.
`COc1c(N)nc(-c2ccc(Cl)c(F)c2F)nc1C(=O)NO` gave a melting point of 192 to 194 °C.
Compound `CCCCCCCCNC(=O)n1nc(Oc2c(Cl)cc(C(F)(F)F)cc2Cl)cc1C` has a melting point of 43 to 45 °C.
For `COc1ccc(/C=C/c2nc3c([nH]2)c(=O)n(C)c(=O)n3C)c(OC)c1`, the melting point was greater than 280 °C.
`Cc1cccc(C)c1C(=O)N1C(=O)CN(c2ccccc2)C1=O` showed a melting point of 135 to 137 °C.
For `CCOC(=O)C=Cc1ccc(CCNS(=O)(=O)CCc2ccccc2)cc1`, the melting point was 98 to 99 °C.
`CCOc1cc(-c2cc(C(F)F)n3ncc(C(=O)Nc4cccc(S(=O)(=O)N5CCOCC5)c4)c3n2)ccc1C(F)(F)F` gave a melting point of 231 °C.
Work on `COc1ccccc1N1CCN(CCCc2ccc(C3CCC(=O)N3)cc2)CC1` (stereo not given) yielded a melting point of 109 to 111 °C.
In the case of `COc1cc(OC)c(C23CC4CC(CC(C4)C2)C3)cc1C=O`, the melting point is reported as 152 to 154 °C.
`CCC(=O)Nc1c(C#N)cnn1-c1c(Cl)cc(SC(F)(F)F)cc1Cl` showed a melting point of 153 to 156 °C.
With `COc1ccc(Nc2c(N)cc(C(=O)O)cc2S(N)(=O)=O)cc1` the melting point was 214 °C.
Work on `CC(C)[C@@H]1C[C@@H](CO)NC1=O` yielded a melting point of 55.9 °C.
In the case of `CC1(CN=[N+]=[N-])COC(Cn2ccnc2)(c2ccc(Cl)cc2Cl)OC1` (stereo not given), the melting point is reported as 132 to 133 °C.
`CC(=O)OCC1OC(n2ncc(C#N)n2)C(OC(C)=O)C1OC(C)=O` (stereo not given) showed a melting point of 77 to 79 °C.
For `CS(=O)(=O)c1ccc(-c2cnn(-c3ccc(C(=O)n4cccc4)cc3)c(=O)c2-c2ccc(F)cc2)cc1`, the melting point was 229 to 231 °C.
With `CN(N=Cc1ccc([N+](=O)[O-])cc1)C1=NOCc2ccc(Cl)cc21` the melting point was 251 °C.
With `NC(=S)c1cccc(-c2cccc(C(N)=S)c2)c1` the melting point was 188 to 190 °C.
For `COc1ccc2c(c1)c(-c1cc3c(C(=O)NC(C)(C)CO)ccnc3[nH]1)cn2C`, the melting point was 210 to 212 °C.
In the case of `CN1C(=O)C(=NC(Cl)=C(Cl)Cl)N(c2ccc(Cl)cc2)C1=O`, the melting point is reported as 108 to 110 °C.
`CC(=O)c1ccc(OCCCC(=O)O)cc1F` gave a melting point of 110 to 111 °C.
Work on `CNN1c2c(cc(Oc3ccc(F)cc3F)c(=O)n2NC)C=NC1S(=O)Cc1ccccc1` (stereo not given) yielded a melting point of 80.5 to 89.9 °C.
Work on `Cc1[nH]c(C(=O)NCCN2CCCCC2)c(C)c1-c1nc2ccc(C(=O)c3ccccc3)cc2[nH]1` yielded a melting point of 230 to 237 °C.
With `NC(=O)CNC(=O)c1cc(F)cc(-c2ccc(F)c3cc(Cc4cc(F)cc(Cl)c4)sc23)c1` the melting point was 192 to 194 °C.
`Cc1c(SCCCCSCc2ccncc2)ccnc1CNc1cnc2ccccc2c1` showed a melting point of 110 to 113 °C.
In the case of `COc1ccc(N2C(=O)C(N3C(=O)c4ccccc4C3=O)C2c2ccc(C(=O)O)cc2)cc1` (stereo not given), the melting point is reported as 265 °C.
`CCN(CC)CCOc1ccc(C(O)(CC)c2ccc(Cl)cc2)cc1` (stereo not given) showed a melting point of 50 to 51 °C.
For `Cc1c2sc3ccccc3nc-2c2ccccc2c1=O`, the melting point was 181 °C.
`CCCSc1ncc(C(Cc2ccccc2)C(=O)O)n1Cc1ccccc1Cl` (stereo not given) gave a melting point of 60 to 63 °C.
In the case of `CC(=O)NNCC1CC2c3cccc4c3c(cn4C)CC2N(C)C1` (stereo not given), the melting point is reported as 190 to 192 °C.
With `CN(C(=O)c1cc(=O)n(C)c2ccc(C(O)(c3ccc(Cl)cc3)c3cncn3C)cc12)c1cccc(Cl)c1` (stereo not given) the melting point was 218 °C.
For `Cc1ccc(S(=O)(=O)NC(=O)OCCc2ccc(-n3c(CCC(=O)N4CCCCC4)nc4cc(C(F)(F)F)c(Cl)cc43)cc2)cc1`, the melting point was 210 °C.
In the case of `Cc1nnc2cc(-c3ccccn3)ccn12`, the melting point is reported as 239 to 241 °C.
With `CC(=O)n1cc(C2=C(c3cn(C)c4ccccc34)C(=O)NC2=O)c2ccccc21` the melting point was 252 to 253 °C.
For `Cc1nc(-c2ccc3c(c2)CCCC3)c(CCC(=O)O)o1`, the melting point was 135 to 136 °C.
With `CN1CCN(C(=O)Cn2c(-c3cc(Cl)ccn3)nc3cccnc32)CC1` the melting point was 174 to 175 °C.
`C=CCON=C(C(=O)O)C1=CSCCO1` showed a melting point of 119 to 121 °C.
With `Cc1nsc(-c2ccc(N3CCN(c4cccc(C(F)(F)F)c4)CC3)nn2)n1` the melting point was 173 °C.
For `CCN(CC)C(=O)C1=C(C(=O)Nc2ccc(Cl)cc2F)CCCC1`, the melting point was 105 to 106 °C.
For `CCCCCCCCOC(=O)NCCC(=O)O`, the melting point was 70 to 72 °C.
Work on `Cn1c2c(c3cc(Cl)ccc31)CCC(C(=O)O)C2` (stereo not given) yielded a melting point of 259 to 260 °C.
Compound `Cc1cc2cc(N=[N+]=[N-])ccc2[nH]1` has a melting point of 57 to 60 °C.
Work on `COc1cc(C(=O)NS(=O)(=O)Cc2ccccc2C(F)(F)F)nc(C)n1` yielded a melting point of 120 to 122 °C.
In the case of `O=C(O)C(CC=Cc1ccccc1)Cc1cccc2ccccc12` (stereo not given), the melting point is reported as 135 to 137 °C.
`O=[N+]([O-])C=C1NCCN1Cc1ccc(Cl)nc1` showed a melting point of 160 to 161 °C.
Work on `Nc1nc2c(s1)C(=O)CCC2` yielded a melting point of 259 to 262 °C.
`COc1ccc(CN2C(=O)C3(COc4cc5c(cc43)CCO5)c3ccccc32)cc1` (stereo not given) showed a melting point of 120 to 121 °C.
Compound `CCc1nc(NC(=O)NS(=O)(=O)c2ccccc2OC(F)F)nc(OC)n1` has a melting point of 114 to 116 °C.
Compound `CC(=O)Oc1c(C)sc2ccccc12` has a melting point of 75 to 77 °C.
Compound `C(=C\c1nc2ccccc2n1-c1nccs1)/c1ccccc1` has a melting point of 99 to 99.5 °C.
Compound `CN1CC(C(=O)c2coc(Cc3ccc(F)cc3)c2)=C(O)C1=O` has a melting point of 158 to 160 °C.
Compound `COC(=O)c1cc(Oc2ccnc(Cl)c2)cc2ccccc12` has a melting point of 103 to 104 °C.
`O=C1Cc2cc(NC(=O)C(=O)N3CCC(COc4ccccc4)CC3)ccc2N1` showed a melting point of 200 to 202 °C.
For `CCCCc1nc(Cl)c(C(=O)OC(C)C)n1Cc1ccc2oc(-c3ccccc3-c3nnn[nH]3)c(Br)c2c1`, the melting point was 105 to 106 °C.
With `Cc1oc2c(C(O)CN)cccc2c1C` (stereo not given) the melting point was 73 °C.
For `CCCCC(=O)Nc1ccc(Br)c(-n2nc(CC)n(Cc3ccc(-c4ccccc4S(N)(=O)=O)cc3F)c2=O)c1`, the melting point was 223 to 225 °C.
Compound `CCN(CC)C(=O)COc1nc(C(F)(F)F)ns1` has a melting point of 60 °C.
`COc1cc(COc2nn(-c3ccccc3)cc2/C=C\c2cscn2)ccc1OCc1nc(-c2ccco2)oc1C` gave a melting point of 137 to 138 °C.
